Where a name gives a salt, the structure may show the parent alone.
What was measured:
[1] = Physical form composition of active ingredient in tablets prepared using wet granulation; type: physicochemical
Method: Wet granulation of (S)—N-(3-(6-isopropoxypyridin-3-yl)-1H-indazol-5-yl)-1-(2-(4-(4-(1-methyl-1H-1,2,4-triazol-3-yl)phenyl)-3,6-dihydropyridin-1(2H)-yl)-2-oxoethyl)-3-(methylthio)pyrrolidine-3-carboxamide crystalline form 1 HCl was achieved using a high shear granulator. […] was alternatively achieved using a fluidized bed procedure.
Two tablets (1a and 1b) having the following amounts (weight %) of ingredients were prepared using wet granulation.
The following procedure was followed: • 1. Prepare a 20% binder solution by adding purified water and polyvinyl pyrrolidone K30 to a mixing vessel and stir until completely dissolved. • 2. Add lactose, microcrystalline cellulose (Avicel 102), (S)—N-(3-(6-isopropoxypyridin-3-yl)-1H-indazol-5-yl)-1-(2-(4-(4-(1-methyl-1H-1,2,4-triazol-3-yl)phenyl)-3,6-dihydropyridin-1(2H)-yl)-2-oxoethyl)-3-(methylthio)pyrrolidine-3-carboxamide crystalline form 1 HCl and a disintegrant (croscarmellose sodium or crospovidone) to a high shear granulator. • 3. Dry mix the ingredients using an impeller and chopper. • 4. Add the binder solution prepared in step 1 to the high shear granulator using a peristaltic pump and flexible tubing. • 5. Spray the binder solution to form wet granules. Additional mixing without spraying of the binder solution (also known as wet massing) may be used. • 6. Pass the wet granulation through a screen. • 7. Dry the granules using a tray dryer and dry heat. • 8. Pass the dried granules through a screen and add to a bin. • 9. Add extragranular disintegrant (croscarmellose sodium or crospovidone) to the materials in step 8 and blend. • 10. Add prescreened magnesium stearate lubricant to the bin and blend. • 11. Compress the lubricated blend resulting from step 10 using a suitable rotary tablet press. Fluidized Bed Granulation: • 1. Prepare a 20% binder solution by adding purified water and PVP K30 to a mixing vessel and stir until completely dissolved. • 2. Add lactose monohydrate, microcrystalline cellulose, (S)—N-(3-(6-isopropoxypyridin-3-yl)-1H-indazol-5-yl)-1-(2-(4-(4-(1-methyl-1H-1,2,4-triazol-3-yl)phenyl)-3,6-dihydropyridin-1(2H)-yl)-2-oxoethyl)-3-(methylthio)pyrrolidine-3-carboxamide crystalline form 1 HCl and croscarmellose sodium or crospovidone disintegrant to a fluid bed to form a mixture. • 3. Pre-heat the materials of step 2 using fluid air until the target bed temperature reaches 55°-60° C. • 4. Spray the binder solution prepared in step 1 onto the mixture resulting from step 2 to form wet granules. • 5. Fluidize and dry the wet granules resulting from step 4. • 6. Pass the dried granules through a screen and add to a bin • 7. Add extragranular croscarmellose sodium or crospovidone disintegrant to the dried granules and blend. • 8. Add prescreened magnesium stearate lubricant to the blend resulting from step 7 and blend. • 9. Compress the final lubricated blend using a suitable rotary tablet press.
(§1) “LOD” refers to “limit of detection” and “<LOD” means the amount of indicated material, if any, was not detectable.

[2] = Physical form composition of active ingredient in tablets prepared using roller compaction; type: physicochemical
From the text: (S)—N-(3-(6-isopropoxypyridin-3-yl)-1H-indazol-5-yl)-1-(2-(4-(4-(1-methyl-1H-1,2,4-triazol-3-yl)phenyl)-3,6-dihydropyridin-1(2H)-yl)-2-oxoethyl)-3-(methylthio)pyrrolidine-3-carboxamide crystalline form 1 HCl was subjected to roller compaction in order to create a granular composition for subsequent use in preparing tablets of (S)—N-(3-(6-isopropoxypyridin-3-yl)-1H-indazol-5-yl)-1-(2-(4-(4-(1-methyl-1H-1,2,4-triazol-3-yl)phenyl)-3,6-dihydropyridin-1(2H)-yl)-2-oxoethyl)-3-(methylthio)pyrrolidine-3-carboxamide crystalline form 1 HCl.
Three tablets (RC-1, RC-2 and RC-3) having the following amounts (weight %) of ingredients were prepared using roller compaction.
The following procedure was followed: • 1. Blend colloidal silicon dioxide and (S)—N-(3-(6-isopropoxypyridin-3-yl)-1H-indazol-5-yl)-1-(2-(4-(4-(1-methyl-1H-1,2,4-triazol-3-yl)phenyl)-3,6-dihydropyridin-1(2H)-yl)-2-oxoethyl)-3-(methylthio)pyrrolidine-3-carboxamide crystalline form 1 HCl in a blender. • 2. Delump the blend using a screen. • 3. Blend lactose monohydrate, microcrystalline cellulose (Avicel 102), and disintegrant (croscarmellose sodium or crospovidone) with the delumped materials from step 2 using a blender. • 4. Add prescreened magnesium stearate lubricant to the blend of step 3 and blend. • 5. Roller compact the blend resulting from step 4 • 6. Screen the roller compacted ribbons through a mesh and add the resulting milled granules to a suitable bin. • 7. Add prescreened extragranular magnesium stearate lubricant to the bin and blend with the milled granules. • 8. Compress the final lubricated blend resulting from step 7 using a suitable rotary tablet press.
as §1

[3] = wet granulation tablets, <LOD = not detectable
[4] = wet granulation tablets, share of total active ingredient
[5] = share of total active ingredient

## CS[C@@]1(C(=O)Nc2ccc3[nH]nc(-c4ccc(OC(C)C)nc4)c3c2)CCN(CC(=O)N2CC=C(c3ccc(-c4ncn(C)n4)cc3)CC2)C1 [F-1 HCl, (S)—N-(3-(6-isopropoxypyridin-3-yl)-1H-indazol-5-yl)-1-(2-(4-(4-(1-methyl-1H-1,2,4-triazol-3-yl)phenyl)-3,6-dihydropyridin-1(2H)-yl)-2-oxoethyl)-3-(methylthio)pyrrolidine-3-carboxamide crystalline form 1 HCl]
[1]; wet granulation processing (high shear or fluidized bed)
  disproportionation of crystalline form 1 HCl: no disproportionation
[1]; [3]
  Am FB (amorphous free base) amount: LOD
  F-1 FB (crystalline form 1 free base) amount: LOD
[1]; [4]
  Am HCl (amorphous HCl) amount: 7%
  F-1 HCl (crystalline form 1 HCl) amount: 92%
[2]; <LOD = not detectable
  F-1 FB (crystalline form 1 free base) amount: <LOD
[2]; [5]
  Am FB (amorphous free base) amount: <LOD
  Am HCl (amorphous HCl) amount: 7%
  F-1 HCl (crystalline form 1 HCl) amount: 92%
